Source: EPA's ToxValDB 9.5

Tested on: Rattus norvegicus
[1] = developmental, oral, gavage, F, Wistar, generation: F1, F1: novel object test (time exploring both objects, trial 2) + F1: novel object test (time exploring familiar object, trial 2)
[2] = developmental, oral, gavage, M, Wistar, generation: F1, F1: active avoidance (shuttle box, conditioned avoidance response, 4th block) + F1: passive avoidance (avoidance latency) + F1: rotarod (…
[3] = developmental, oral, gavage, M, Wistar, generation: F1, F1: auditory startle reflex (peak latency) + F1: auditory startle reflex (pre-pulse inhibition peak latency) + F1: vocalization (number …
[4] = subchronic, duration: 3 months, oral, drinking water, M/F, Sprague-Dawley, Morris water maze (escape time, acquisition, day 1) + Morris water maze (escape time, acquisition, day 5)
[5] = subchronic, duration: 3 months, oral, drinking water, M/F, Sprague-Dawley, Morris water maze (escape time, acquisition, day 6)
[6] = subchronic, duration: 12 weeks, oral, drinking water, M, Sprague-Dawley, territorial aggression (ventral presenting posture events of stud male)
[7] = subchronic, duration: 30 days, oral, drinking water, M, Wistar, active avoidance (shuttle box, number of avoidances of conditioned shock stimulus)

[F-].[Na+] [Sodium fluoride] gave an NOEL (developmental, oral, gavage, F, Wistar, generation: F1, F1: auditory startle reflex (amplitude) + F1: auditory startle reflex (peak latency) + F1: auditory startle reflex (pre-pulse inhibition …) of 2.26 mg/kg-day, an LOEL [1] of 2.26 mg/kg-day and an NOEL [1] of 1.13 mg/kg-day. The LOEL (developmental, oral, gavage, M/F, Sprague-Dawley, generation: F1, F1: air righting + F1: Morris water maze (escape time, probe test, day 5) + F1: Morris water maze (platform crossing, probe test, day 5) + …) was 3.44 mg/kg-day, the NOEL (developmental, oral, gavage, M/F, Sprague-Dawley, generation: F1, F1: auditory startle (response to metal object sound) + F1: cliff avoidance) was 3.44 mg/kg-day and the NOEL (developmental, oral, gavage, M, Wistar, generation: F1, F1: active avoidance (shuttle box, conditioned avoidance response, 1st block) + F1: novel object test (time exploring both objects, trial 2…) was 2.26 mg/kg-day. The LOEL [2] was 2.26 mg/kg-day, the NOEL [2] was 1.13 mg/kg-day and the LOEL (developmental, oral, gavage, M, Wistar, generation: F1, F1: auditory startle reflex (amplitude)) was 1.13 mg/kg-day. For the same compound, the LOEL [3] was 2.26 mg/kg-day, the NOEL [3] was 1.13 mg/kg-day and the LOEL (developmental, oral, gavage, M, Wistar, generation: F1, F1: sexual behavior (mount/intromission frequency) + F1: sexual behavior (mount/intromission latency)) was 1.13 mg/kg-day. For the same compound, the LOEL (short-term, duration: 14 days, injection, intraperitoneal, M, Wistar, rotarod (endurance time)) was 9.05 mg/kg-day, the LOEL [4] was 1.36 mg/kg-day and the NOEL [4] was 0.68 mg/kg-day. For the same compound, the LOEL [5] was 3.27 mg/kg-day, the NOEL [5] was 0.33 mg/kg-day and the NOEL (subchronic, duration: 3 months, oral, drinking water, M/F, Sprague-Dawley, Morris water maze (platform crossing, probe test, day 7) + Morris water maze (time in target quadrant, probe test, day 7)) was 3.27 mg/kg-day. For the same compound, the LOEL (subchronic, duration: 3 months, oral, drinking water, M/F, Wistar, passive avoidance (step-down test, time to move from rubber mat to electrified bar, session 2, day 30) + passive avoidance (step-down test, …) was 5.84 mg/kg-day, the LOEL (subchronic, duration: 3 months, oral, drinking water, M, Sprague-Dawley, Morris water maze (escape time, acquisition, day 1) + Morris water maze (escape time, acquisition, day 11) + Morris water maze (escape time…) was 7.52 mg/kg-day and the NOEL (subchronic, duration: 3 months, oral, drinking water, M, Wistar, Morris water maze (entries into target quadrant, probe test, day 4) + Morris water maze (escape time, acquisition, day 2) + Morris water …) was 3.34 mg/kg-day. It also gave an LOEL (subchronic, duration: 3 months, oral, gavage, M/F, Sprague-Dawley, Morris water maze (escape time, acquisition day 1) + Morris water maze (escape time, acquisition, day 5)) of 9.05 mg/kg-day, an NOEL (subchronic, duration: 3 months, oral, gavage, M, Albino, open field (ambulation distance) + open field (ambulation time) + open field (immobility time) + open field, stereotypic events + open field…) of 9.05 mg/kg-day and an LOEL (subchronic, duration: 3 months, oral, gavage, M, Albino, open field (squares crossed)) of 4.52 mg/kg-day. It also gave an LOEL (subchronic, duration: 3 months, oral, gavage, M, Wistar, Y-maze (number of training runs to meet 90% learning standard, day 23) + Y-maze (number of training runs to meet 90% learning standard, day …) of 6.67 mg/kg-day, an NOEL (subchronic, duration: 12 weeks, oral, drinking water, M, Sprague-Dawley, sexual behavior (ejaculation latency) + territorial aggression (fights with stud male)) of 18.8 mg/kg-day and an LOEL (subchronic, duration: 12 weeks, oral, drinking water, M, Sprague-Dawley, sexual behavior (intromission latency) + sexual behavior (post-ejaculatory interval) + sexual behavior (time to first mount) + sexual …) of 6.27 mg/kg-day. It also gave an LOEL [6] of 18.8 mg/kg-day, an NOEL [6] of 6.27 mg/kg-day and an NOEL (subchronic, duration: 12 weeks, oral, gavage, Wistar, open field (ambulation distance, 12 wks) + open field (ambulation distance, 3 wks) + open field (ambulation events, 12 wks) + open field (…) of 2.3 mg/kg-day. It also gave an NOEL (subchronic, duration: 30 days, oral, drinking water, M/F, Wistar, activity cage (ambulatory events) + activity cage (head turning events) + activity cage (head turning time) + activity cage (rearing events…) of 10.4 mg/kg-day, an LOEL (subchronic, duration: 30 days, oral, drinking water, M/F, Wistar, activity cage (ambulatory time) + activity cage (rearing time) + activity cage (sitting events) + activity cage (sitting time) + activity …) of 10.4 mg/kg-day and an NOEL (subchronic, duration: 30 days, oral, drinking water, M, Wistar, T-maze (number of errors, retention phase)) of 40 mg/kg-day. It also gave an LOEL (subchronic, duration: 30 days, oral, drinking water, M, Wistar, T-maze (number of sessions to reach learning criterion)) of 40 mg/kg-day, an LOEL [7] of 4.87 mg/kg-day and an NOEL [7] of 2.33 mg/kg-day. The NOEL (subchronic, duration: 30 days, oral, drinking water, M, Wistar, active avoidance (shuttle box, number of escapes of conditioned shock stimulus) + active avoidance (shuttle box, number of failures to avoid…) was 4.87 mg/kg-day, the LOEL (subchronic, duration: 30 days, oral, drinking water, M, Wistar, dental fluorosis_0 degrees + dental fluorosis_1 degree + open field (squares crossed, test session)) was 2.33 mg/kg-day and the NOEL (subchronic, duration: 30 days, oral, drinking water, M, Wistar, open field (squares crossed, day 1 - minute 1) + open field (squares crossed, day 1 - minute 2) + open field (squares crossed, day 1) + open…) was 6.67 mg/kg-day. The NOEL (subchronic, duration: 30 days, oral, drinking water, M, Wistar, passive avoidance (exploration, number of crossings) + passive avoidance (exploration, time in small compartment)) was 14.8 mg/kg-day, the LOEL (subchronic, duration: 30 days, oral, drinking water, M, Wistar, passive avoidance (retention, number of crossings) + passive avoidance (retention, time in small compartment) + T-maze (exploratory activity…) was 14.8 mg/kg-day and the LOEL (subchronic, duration: 30 days, oral, drinking water, M, Wistar, passive avoidance (retention, time in small compartment) + T-maze (exploratory activity) + T-maze (number of correct choices) + T-maze (…) was 14.8 mg/kg-day. The “LOEL (mg% thigh bone)” value (subchronic, duration: 30 days, oral, gavage, motor activity (spontaneous) + orienting reflex) was 10.6, the LOEL (subchronic, duration: 60 days, oral, drinking water, F, Wistar, activity cage (exploratory motor activity events) + rotarod (latency to fall, 14 rpm)) was 111 mg/kg-day and the LOEL (subchronic, duration: 60 days, oral, drinking water, F, Wistar, activity cage (motor activity events) + rotarod (latency to fall, 14 rpm)) was 1.94 mg/L serum. It also gave an LOEL (subchronic, duration: 60 days, oral, drinking water, Wistar, passive avoidance (retention, latency)) of 1.8 mg/kg-day, an LOEL (subchronic, duration: 60 days, oral, gavage, F, Wistar, activity cage (ambulation events)) of 9.05 mg/kg-day and an NOEL (subchronic, duration: 60 days, oral, gavage, F, Wistar, rotarod (latency to fall, 14 rpm)) of 18.1 mg/kg-day.
